Assay results published in the supplement of paper PMC10307832.

Columns and labels:
Test in all cases: relative viability (nuclei count vs DMSO), 5 days (fraction); higher = more cells survive
[1] = compound: C[C@@]1(C(=O)Nc2ccc(F)nc2)CCCN1c1nc(Nc2cc(C3CC3)n[nH]2)c2cccn2n1 + Nc1ncn([C@H]2C[C@H](O)[C@@H](CO)O2)c(=O)n1 [Decitabine] (partner 2 µM)
Outline: (§1)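 Nuclei were stained with Hoechst during a one-step fixation (final 0.05% Triton X-100, 1% formaldehyde, 1 ug/ml Hoechst) carried out 5 days after dosing, then counted on 4× images. The cells, lung cancer lines in 1536-well plates, had been dosed by pin tool the day after seeding with one drug alone or a fixed anchor-drug dose plus five library-drug doses (not always all listed) in √10 steps. Relative viability is the nuclei count in treated wells divided by that in vehicle wells, and each value is the median of duplicate plates.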

[2] = compound: C[C@@]1(C(=O)Nc2ccc(F)nc2)CCCN1c1nc(Nc2cc(C3CC3)n[nH]2)c2cccn2n1 + CC(=O)c1c(C)c2cnc(Nc3ccc(N4CCNCC4)cn3)nc2n(C2CCCC2)c1=O [Palbociclib] (partner 0.5 µM)
Outline: as §1

[3] = compound: CC1(C)CNc2cc(NC(=O)c3cccnc3NCc3ccncc3)ccc21 [Motesanib] + C[C@@H](Oc1cc(-c2cnn(C3CCNCC3)c2)cnc1N)c1c(Cl)ccc(F)c1Cl [Crizotinib] (partner 1 µM)
Outline: as §1

[4] = compound: CC1(C)CNc2cc(NC(=O)c3cccnc3NCc3ccncc3)ccc21 [Motesanib] + C[C@]1(O)C[C@@H](c2nc(-c3ccc4ccc(-c5ccccc5)nc4c3)c3c(N)nccn32)C1 [Linsitinib] (partner 1 µM)
Outline: as §1

NCI-H2085
relative viability ([1]; first compound 0.04 µM): 0.51 | relative viability ([1]; first compound 0.1265 µM): 0.499 | relative viability ([1]; first compound 0.4 µM): 0.538 | relative viability ([1]; first compound 1.265 µM): 0.528 | relative viability ([2]; first compound 0.04 µM): 0.485 | relative viability ([2]; first compound 0.1265 µM): 0.455 | relative viability ([2]; first compound 0.4 µM): 0.439 | relative viability ([2]; first compound 1.265 µM): 0.443 | relative viability ([3]; first compound 0.01 µM): 0.924 | relative viability ([3]; first compound 0.03162 µM): 0.846 | relative viability ([3]; first compound 0.1 µM): 1.05 | relative viability ([3]; first compound 0.3162 µM): 0.807 | relative viability ([3]; first compound 1 µM): 0.756 | relative viability ([4]; first compound 0.01 µM): 0.936 | relative viability ([4]; first compound 0.03162 µM): 0.853 | relative viability ([4]; first compound 0.1 µM): 1.13 | relative viability ([4]; first compound 0.3162 µM): 0.996 | relative viability ([4]; first compound 1 µM): 0.886

NCI-H2087
relative viability ([1]; first compound 0.04 µM): 0.237 | relative viability ([1]; first compound 0.1265 µM): 0.191 | relative viability ([1]; first compound 0.4 µM): 0.258 | relative viability ([1]; first compound 1.265 µM): 0.16 | relative viability ([2]; first compound 0.04 µM): 0.218 | relative viability ([2]; first compound 0.1265 µM): 0.188 | relative viability ([2]; first compound 0.4 µM): 0.177 | relative viability ([2]; first compound 1.265 µM): 0.181 | relative viability ([3]; first compound 0.01 µM): 0.686 | relative viability ([3]; first compound 0.03162 µM): 0.983 | relative viability ([3]; first compound 0.1 µM): 0.951 | relative viability ([3]; first compound 0.3162 µM): 0.878 | relative viability ([3]; first compound 1 µM): 0.93 | relative viability ([4]; first compound 0.01 µM): 0.885 | relative viability ([4]; first compound 0.03162 µM): 1.03 | relative viability ([4]; first compound 0.1 µM): 1.16 | relative viability ([4]; first compound 0.3162 µM): 0.998 | relative viability ([4]; first compound 1 µM): 1.1

NCI-H2126
relative viability ([1]; first compound 0.04 µM): 0.539 | relative viability ([1]; first compound 0.1265 µM): 0.389 | relative viability ([1]; first compound 0.4 µM): 0.36 | relative viability ([1]; first compound 1.265 µM): 0.471 | relative viability ([2]; first compound 0.04 µM): 0.353 | relative viability ([2]; first compound 0.1265 µM): 0.309 | relative viability ([2]; first compound 0.4 µM): 0.342 | relative viability ([2]; first compound 1.265 µM): 0.359 | relative viability ([3]; first compound 0.01 µM): 1.07 | relative viability ([3]; first compound 0.03162 µM): 1 | relative viability ([3]; first compound 0.1 µM): 0.999 | relative viability ([3]; first compound 0.3162 µM): 1.03 | relative viability ([3]; first compound 1 µM): 1.09 | relative viability ([4]; first compound 0.01 µM): 0.736 | relative viability ([4]; first compound 0.03162 µM): 0.73 | relative viability ([4]; first compound 0.1 µM): 0.719 | relative viability ([4]; first compound 0.3162 µM): 0.74 | relative viability ([4]; first compound 1 µM): 0.701

NCI-H2347
relative viability ([1]; first compound 0.04 µM): 0.571 | relative viability ([1]; first compound 0.1265 µM): 0.574 | relative viability ([1]; first compound 0.4 µM): 0.487 | relative viability ([1]; first compound 1.265 µM): 0.599 | relative viability ([2]; first compound 0.04 µM): 0.405 | relative viability ([2]; first compound 0.1265 µM): 0.415 | relative viability ([2]; first compound 0.4 µM): 0.386 | relative viability ([2]; first compound 1.265 µM): 0.436 | relative viability ([3]; first compound 0.01 µM): 0.783 | relative viability ([3]; first compound 0.03162 µM): 0.691 | relative viability ([3]; first compound 0.1 µM): 0.715 | relative viability ([3]; first compound 0.3162 µM): 0.745 | relative viability ([3]; first compound 1 µM): 0.631 | relative viability ([4]; first compound 0.01 µM): 0.985 | relative viability ([4]; first compound 0.03162 µM): 1.01 | relative viability ([4]; first compound 0.1 µM): 1.06 | relative viability ([4]; first compound 0.3162 µM): 1 | relative viability ([4]; first compound 1 µM): 1

NCI-H2405
relative viability ([1]; first compound 0.04 µM): 0.68 | relative viability ([1]; first compound 0.1265 µM): 0.487 | relative viability ([1]; first compound 0.4 µM): 0.488 | relative viability ([1]; first compound 1.265 µM): 0.576 | relative viability ([2]; first compound 0.04 µM): 0.47 | relative viability ([2]; first compound 0.1265 µM): 0.303 | relative viability ([2]; first compound 0.4 µM): 0.391 | relative viability ([2]; first compound 1.265 µM): 0.402 | relative viability ([3]; first compound 0.01 µM): 0.8 | relative viability ([3]; first compound 0.03162 µM): 0.847 | relative viability ([3]; first compound 0.1 µM): 0.875 | relative viability ([3]; first compound 0.3162 µM): 0.864 | relative viability ([3]; first compound 1 µM): 0.905 | relative viability ([4]; first compound 0.03162 µM): 1 | relative viability ([4]; first compound 0.1 µM): 0.866 | relative viability ([4]; first compound 0.3162 µM): 0.967 | relative viability ([4]; first compound 1 µM): 0.993
